Measurements taken from article PMC11990662, “Synthesis and Evaluation of the Antiproliferative Activity of the Derivatives of 3,5-Diaryl-3,4-dihydro-2H-pyrrole-2-carboxylic Acids” (Molecules, 2025).

Columns and labels:
HeLa (cervical cancer) = experiment: MTT antiproliferative assay, HeLa; assay type: cell-based, human; settings: 72 h
Description: (§1) Antiproliferative activity of some compounds was evaluated on cell cultures derived from MDA-MB-231 (triple negative human breast carcinoma). […] This finding allowed us to further investigate the antiproliferative activity of selected compounds on additional tumor cell lines. We studied the influence of the stereochemical orientation of the substituents at C2 and C3 in substituted 3,4-dihydro-2H-pyrrole-2-carbonitriles. The antiproliferative activity of single diastereomers of some nitriles 4 and the amide cis-6m were assessed on multiple human cancer cell lines via the MTT assay. For these experiments, the following human cell lines were used: MCF-7 (luminal type A breast carcinoma), MD-MBA-231, H1299 (non-small-cell lung carcinoma cells), A549 (lung alveolar adenocarcinoma), HeLa (cervical cancer), HepG2 (hepatocellular carcinoma), HT-29 (colorectal adenocarcinoma) and PC3 (prostate adenocarcinoma). As a model of normal tissue, we used MCF-10A (non-tumorigenic epithelial cells of mammary gland). Table 5 and Table 6 present the values of concentration that inhibits cell viability to 50% (IC50) and selectivity index (SI = IC50(MCF-10A)/IC50(tumor cell line)).
(§2) The antiproliferative activity testing was performed on cell cultures from several human cancer cell lines the MTT-dye reduction assay, described by Mosmann. Cell lines were obtained from the American Type Cultures Collection (ATCC, Manassas, VA, USA). In this article we used the following cell lines: MCF-10A (ATCC, CRL-10317™) Non-tumorigenic epithelial cells of mammary gland, MCF-7 (ATCC, HTB-22™) Luminal type A breast carcinoma, MDA-MB-231 (ATCC, HTB-26™) Triple negative breast carcinoma, H1299 (ATCC, CRL-5803™) Non-small-cell lung carcinoma, A549 (ATCC, CRM-CCL-185™) Llung alveolar adenocarcinoma, HeLa (ATCC, CCL-2™) Cervical cancer, Hep G2 (ATCC, HB-8065™) Hepatocellular carcinoma, HT-29 (ATCC, HTB-38™) Colorectal adenocarcinoma, PC-3 (ATCC, CRL-1435™) Prostate adenocarcinoma. The cells were cultured in a cell culture laboratory at the Institute of Experimental Morphology, Pathology and Anthropology with a Museum—Bulgarian Academy of Sciences. They were cultured in Dulbecco’s Modified Eagle’s medium, high glucose (DMEM 4.5 g/L glucose), supplied with 10% fetal bovine serum and antibiotics in usual concentrations in a humidified atmosphere with 5% CO2 at 37.5 °C. In the case of MCF-10A cells, epidermal growth factor, insulin and cholera toxin were added in concentrations corresponding to the cell bank instructions. Cells were plated at a density of 1 × 10^3 cells per well in a 96-well flat-bottomed microplates and allowed to adhere for 24 h before treatment with the test compounds, dissolved in DMSO, and further diluted in culture medium to the final concentrations. A concentration ranges from 5 µM to 4.1 mM was tested over an incubation period of 72 h. Cisplatin (Sigma-Aldrich) was used as a positive control in a concentration range 50 nM to 100 µM. All experiments were performed in triplicates. The MTT-formazan absorption was measured using a microplate reader (TECAN, Sunrise^TM, Groedig/Salzburg, Austria) at 570 nm. Antiproliferative activities were expressed as IC50 values (concentrations required for 50% inhibition of cell growth), calculated using non-linear regression analysis (GraphPad Prizm8 Software). The statistical analysis involved One-way ANOVA followed by Bonferroni’s post hoc test p < 0.05 was accepted as the lowest level of statistical significance.

[1] = tested on: HepG2 (hepatocellular carcinoma); experiment: MTT antiproliferative assay, HepG2; assay type: cell-based, human; settings: 72 h
Description: as §1, §2

[2] = tested on: PC3 (prostate adenocarcinoma); experiment: MTT antiproliferative assay, PC3; assay type: cell-based, human; settings: 72 h
Description: as §1, §2

[3] = tested on: MCF-10A (non-tumorigenic epithelial cells of mammary gland); experiment: MTT antiproliferative assay, MCF-10A; assay type: cell-based, human; settings: 72 h
Description: as §1, §2

[4] = tested on: H1299 (non-small-cell lung carcinoma cells); experiment: MTT antiproliferative assay, H1299; assay type: cell-based, human
Description: as §1, §2

[5] = tested on: MDA-MB-231 (triple negative human breast carcinoma); experiment: MTT antiproliferative assay, MDA-MB-231; assay type: cell-based; settings: for IC50: MDA-MB-231, MTT, 72 h; for antiproliferative activity (in words): MDA-MB-231, preliminary experiments
Description: as §1, §2

[6] = tested on: A549 (lung alveolar adenocarcinoma); experiment: MTT antiproliferative assay, A549; assay type: cell-based, human; settings: 72 h
Description: as §1, §2

[7] = tested on: HT-29 (colorectal adenocarcinoma); experiment: MTT antiproliferative assay, HT-29; assay type: cell-based, human; settings: HT-29, MTT, 72 h
Description: as §1, §2

[8] = tested on: MCF-7 (luminal type A breast carcinoma); experiment: MTT antiproliferative assay, MCF-7; assay type: cell-based, human; settings: MCF-7, MTT, 72 h
Description: as §1, §2

Compound | IC50 (HeLa (cervical cancer); Homo sapiens) | IC50 ([1]; Homo sapiens) | IC50 ([2]; Homo sapiens) | IC50 ([3]; Homo sapiens) | IC50 ([4]; Homo sapiens, NCI-H1299, 72 h) | IC50 ([5]; Homo sapiens) | IC50 ([6]; Homo sapiens) | IC50 ([7]; Homo sapiens) | IC50 ([8]; Homo sapiens, MCF7) | other results
Cc1ccc(C2=N[C@@H](C#N)[C@@H](c3ccccc3)C2)cc1 (racemic) [cis-4k] | 169 ± 10 µM | 235 ± 15 µM | 297 ± 25 µM | 104 ± 6 µM | 205 ± 6 µM | 2560 ± 107 µM | 82.2 ± 5.8 µM | 853 ± 46 µM | 374 ± 6 µM | –
Cc1ccc(C2=N[C@@H](C#N)[C@H](c3ccccc3)C2)cc1 (relative stereo) [trans-4k, rel-(2R,3S)-5-(4-methylphenyl)-3-phenyl-3,4-dihydro-2H-pyrrole-2-carbonitrile] | 84.1 ± 2.3 µM | 159 ± 4.6 µM | 121 ± 13 µM | 182 ± 5.8 µM | 354 ± 15 µM | 313 ± 20 µM | 11.7 ± 0.8 µM | 136 ± 7.7 µM | 568 ± 57 µM | –
COc1cc(O)c(C2=N[C@@H](C#N)[C@H](c3ccc(C)c(Cl)c3)C2)c(OC)c1 (racemic) [trans-4n] | – | – | – | – | – | – | – | – | – | antiproliferative activity (in words) [5]: very poor activity
COc1ccc(C2=N[C@@H](C#N)[C@@H](c3ccccc3)C2)cc1 (racemic) [cis-4e] | 158 ± 6.5 µM | 554 ± 34 µM | 478 ± 58 µM | 427 ± 12 µM | 840 ± 43 µM | > 3620 µM | 341 ± 26 µM | 308 ± 8 µM | 1770 ± 232 µM | –
N.N.[Cl][Pt][Cl] [Cisplatin, reference compound] | – | – | – | – | – | – | – | – | – | IC50 (HeLa (cervical cancer)): 19.6 ± 3.2 µM; IC50 [1]: 19.1 ± 0.4 µM; IC50 [2]: 3.4 ± 0.5 µM; IC50 [3]: 23.2 ± 1.4 µM; IC50 ([4]; 72 h): 5 ± 0.9 µM; IC50 [5]: 1.8 ± 0.1 µM; IC50 [6]: 38.6 ± 4.7 µM; IC50 [7]: 8.2 ± 0.3 µM; IC50 [8]: 45.8 ± 3.2 µM
COc1cc(O)c(C2=N[C@@H](C#N)[C@@H](c3ccc(C)c(Br)c3)C2)c(OC)c1 (racemic) [cis-4o] | – | – | – | – | – | 35.9 µM | – | – | – | –
COc1cc(O)c(C2=N[C@@H](C#N)[C@H](c3ccc(C)c(Br)c3)C2)c(OC)c1 (racemic) [trans-4o] | – | – | – | – | – | – | – | – | – | antiproliferative activity (in words) [5]: very poor activity
N#C[C@@H]1N=C(c2ccccc2)C[C@@H]1c1cccnc1 (racemic) [cis-4h] | 2220 ± 136 µM | 3000 ± 107 µM | 1920 ± 70 µM | 2280 ± 178 µM | 2980 ± 62 µM | > 4110 µM | 311 ± 19 µM | 1640 ± 132 µM | 1380 ± 255 µM | –
COc1cc(O)c(C2=N[C@@H](C#N)[C@H](c3ccc(C)c(F)c3)C2)c(OC)c1 (racemic) [trans-4m] | 1170 ± 42 µM | 44.6 ± 2.8 µM | 44.3 ± 5.4 µM | 79.3 ± 2.5 µM | 36.4 ± 2 µM | 717 ± 73 µM | 32.2 ± 1.1 µM | 28.1 ± 2 µM | 149 ± 12 µM | –
COc1cc(O)c(C2=N[C@@H](C#N)[C@@H](c3ccc(C)c(Cl)c3)C2)c(OC)c1 (racemic) [cis-4n] | – | – | – | – | – | 75.8 µM | – | – | – | –
COc1cc(O)c(C2=N[C@@H](C#N)[C@H](c3ccc(C)c(F)c3)C2)c(OC)c1 (relative stereo) [cis-4m, rel-(2R,3S)-3-(3-fluoro-4-methylphenyl)-5-(2-hydroxy-4,6-dimethoxyphenyl)-3,4-dihydro-2H-pyrrole-2-carbonitrile] | – | – | – | – | – | – | – | – | – | IC50 (HeLa (cervical cancer)): 224 ± 15 µM; IC50 [1]: 117 ± 4.8 µM; IC50 [2]: 115 ± 4.8 µM; IC50 [3]: 170 ± 12 µM; IC50 ([4]; 72 h): 25.4 ± 2.3 µM; IC50 [5]: 16 ± 0.7 µM; IC50 [6]: 97.6 ± 13 µM; IC50 [7]: 19.6 ± 1.8 µM; IC50 [8]: 185 ± 26 µM
COc1cc(O)c(C2=N[C@@H](C(N)=O)[C@@H](c3ccc(C)c(F)c3)C2)c(OC)c1 [cis-6m] | 1180 ± 37 µM | 117 ± 6.2 µM | 125 ± 7.6 µM | 429 ± 28 µM | 1880 ± 51 µM | 1990 ± 40 µM | 136 ± 5.4 µM | 64.3 ± 4.8 µM | 923 ± 37 µM | –
